Experiments:
Assay type in all cases: in vivo
Echinochloa crus-galli [1] = assay: Test Example 1: herbicidal effect test by treatment of rice paddy soil (immediately after seeding); conditions: 120 g/10a active ingredient, dry weight vs untreated area, 14 days after treatment; for pest or weed control at 1200 g/ha: in Echinochloa crus-galli, 336 h, read-out: Herbicidal rate (%) Echinochloa crus-galli
Method in brief: (§1)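 Pre-emergence paddy water application, 120 g a.i./10 ares, applied immediately post-seeding into ~3 cm flood; glasshouse; duplicate pots; dry weight at 14 d → % inhibition = (1 − treated/untreated) × 100.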

Scirpus juncoides [2] = assay: as above; conditions: 120 g/10a active ingredient, dry weight vs untreated area, 14 days after treatment; for pest or weed control at 1200 g/ha: in Schoenoplectiella juncoides, 336 h, read-out: Herbicidal rate (%) Scirpus juncoides
Method in brief: as §1

[3] = system: broad leaf weeds (Lindernia pyxidaria and Monochoria vaginalis); assay: as above; conditions: 120 g/10a active ingredient, dry weight vs untreated area, 14 days after treatment; for pest or weed control at 1200 g/ha: 336 h
Method in brief: as §1

Echinochloa crus-galli [4] = assay: Test Example 4: herbicidal effect test by treatment of leave and stem in dry field farming (seven days after seeding); conditions: 120 g/10a active ingredient, emulsion sprayed seven days after seeding, evaluated 14 days after treatment; for pest or weed control at 1200 g/ha: Echinochloa crus-galli, 336 h, read-out: herbicidal effect (herbicidal rate), Echinochloa crus-galli
Method in brief: (§2)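 Duplicate pots were scored 14 days post-spray by dry weight, herbicidal rate = {1 − treated/untreated average dry weight} × 100. The water-diluted emulsion, equivalent to 120 g active ingredient per 10 ares in 100 L, was applied seven days after sowing 20 seeds each into the upper 1 cm of alluvial soil.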

Amaranthus viridis [5] = assay: as above; conditions: 120 g/10a active ingredient, emulsion sprayed seven days after seeding, evaluated 14 days after treatment; for pest or weed control at 1200 g/ha: Amaranthus viridis, 336 h, read-out: herbicidal effect (herbicidal rate), Amaranthus viridis
Method in brief: as §2

southern crabgrass [6] = assay: as above; conditions: 120 g/10a active ingredient, emulsion sprayed seven days after seeding, evaluated 14 days after treatment; for pest or weed control at 1200 g/ha: Digitaria ciliaris, 336 h, read-out: herbicidal effect (herbicidal rate), southern crabgrass
Method in brief: as §2

Chenopodium album [7] = assay: as above; conditions: 120 g/10a active ingredient, emulsion sprayed seven days after seeding, evaluated 14 days after treatment; for pest or weed control at 1200 g/ha: Chenopodium album, 336 h, read-out: herbicidal effect (herbicidal rate), Chenopodium album
Method in brief: as §2

Echinochloa crus-galli [8] = assay: Test Example 3: herbicidal effect test by treatment of dry field farming soil (one day after seeding); conditions: 120 g/10a active ingredient, evaluated 14 days after treatment; for pest or weed control at 1200 g/ha: Echinochloa crus-galli, 336 h, read-out: herbicidal rate, Echinochloa crus-galli
Method in brief: (§3)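 Weeds were seeded into the upper soil layer of alluvial field soil and, one day afterwards, the soil surface was sprayed with water-diluted emulsion delivering 120 g active ingredient per 10 ares. Mean plant dry weight relative to untreated pots after 14 days gave the herbicidal rate, tested in duplicate.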

Amaranthus viridis [9] = assay: as above; conditions: 120 g/10a active ingredient, evaluated 14 days after treatment; for pest or weed control at 1200 g/ha: Amaranthus viridis, 336 h, read-out: herbicidal rate, Amaranthus viridis
Method in brief: as §3

southern crabgrass [10] = assay: as above; conditions: 120 g/10a active ingredient, evaluated 14 days after treatment; for pest or weed control at 1200 g/ha: Digitaria ciliaris, 336 h, read-out: herbicidal rate, southern crabgrass
Method in brief: as §3

Chenopodium album [11] = assay: as above; conditions: 120 g/10a active ingredient, evaluated 14 days after treatment; for pest or weed control at 1200 g/ha: Chenopodium album, 336 h, read-out: herbicidal rate, Chenopodium album
Method in brief: as §3

Echinochloa crus-galli [12] = assay: Test Example 2: herbicidal effect test by treatment during growing period in paddy rice cultivation (seven days after seeding); conditions: 120 g/10a active ingredient, assessed 14 days after treatment, dry weight vs untreated area; for pest or weed control at 1200 g/ha: Echinochloa crus-galli, 336 h, read-out: herbicidal rate (%) Echinochloa crus-galli
Method in brief: (§4)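 Sow 30 seeds per species (0–1 cm) into puddled, fertilized paddy soil; keep flooded ~3 cm in greenhouse. Day 7 after seeding: drop water-diluted emulsion, 120 g a.i./10 ares. Harvest 14 d post-treatment; compare dry weight with untreated pots (duplicate).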

Scirpus juncoides [13] = assay: as above; conditions: 120 g/10a active ingredient, assessed 14 days after treatment, dry weight vs untreated area; for pest or weed control at 1200 g/ha: Schoenoplectiella juncoides, 336 h, read-out: herbicidal rate (%) Scirpus juncoides
Method in brief: as §4

[14] = system: broad leaf weeds (Lindernia pyxidaria and Monochoria vaginalis); assay: as above; conditions: 120 g/10a active ingredient, assessed 14 days after treatment, dry weight vs untreated area; for pest or weed control at 1200 g/ha: 336 h
Method in brief: as §4

[15] = Monochoria vaginalis, read-out: Herbicidal rate (%) Monochoria vaginalis
[16] = in Lindernia, Lindernia pyxidaria, read-out: Herbicidal rate (%) Lindernia pyxidaria
[17] = Lindernia pyxidaria, read-out: herbicidal rate (%) Lindernia pyxidaria
[18] = Monochoria vaginalis, read-out: herbicidal rate (%) Monochoria vaginalis

Compound | Herbicidal rate (%) Echinochloa crus-galli (Echinochloa crus-galli [1]) | Herbicidal rate (%) Scirpus juncoides (Scirpus juncoides [2]) | Herbicidal rate (%) Lindernia pyxidaria ([3]; Lindernia pyxidaria) | Herbicidal rate (%) Monochoria vaginalis ([3]; Monochoria vaginalis) | herbicidal effect (herbicidal rate), Echinochloa crus-galli (Echinochloa crus-galli [4]) | herbicidal effect (herbicidal rate), Amaranthus viridis (Amaranthus viridis [5]) | herbicidal effect (herbicidal rate), southern crabgrass (southern crabgrass [6]) | herbicidal effect (herbicidal rate), Chenopodium album (Chenopodium album [7]) | herbicidal rate, Echinochloa crus-galli (Echinochloa crus-galli [8]) | herbicidal rate, Amaranthus viridis (Amaranthus viridis [9]) | herbicidal rate, southern crabgrass (southern crabgrass [10]) | herbicidal rate, Chenopodium album (Chenopodium album [11]) | Herbicidal rate (%) Echinochloa crus-galli (Echinochloa crus-galli [12]) | Herbicidal rate (%) Scirpus juncoides (Scirpus juncoides [13]) | Herbicidal rate (%) Lindernia pyxidaria ([14]; Lindernia pyxidaria) | Herbicidal rate (%) Monochoria vaginalis ([14]; Monochoria vaginalis) | pest or weed control at 1200 g/ha (Echinochloa crus-galli [1]) | pest or weed control at 1200 g/ha (Scirpus juncoides [2]) | pest or weed control at 1200 g/ha [3, 15] | pest or weed control at 1200 g/ha [3, 16] | also measured
Cc1c(Cc2ccccc2NS(=O)(=O)C(F)(F)F)c(=O)on1C [Compound 1-97] | 100% | 100% | 100% | 100% | 90% | 40% | 90% | 40% | 90% | 0% | 90% | 0% | 90% | 90% | 80% | 60% |  |  |  |  | 
Cc1c(Cc2ccccc2NS(=O)(=O)C(F)(F)F)c(=O)on1C(C)C [Compound 1-100] | 90% | 90% | 100% | 100% | 90% | 30% | 90% | 90% | 100% | 100% | 100% | 100% | 90% | 90% | 90% | 100% |  |  |  |  | 
Cc1c(Cc2ccccc2NS(=O)(=O)C(F)(F)F)c(=O)on1C(C)(C)C [Compound 1-101] | 90% | 90% | 90% | 90% | 90% | 40% | 90% | 40% | 90% | 90% | 90% | 90% | 90% | 90% | 90% | 90% |  |  |  |  | 
CCC(C)n1oc(=O)c(Cc2ccccc2NS(=O)(=O)C(F)(F)F)c1C (stereo not drawn) [Compound 1-102, 1,1,1-trifluoro-N-[2-[(3-methyl-5-oxo-2-sec-butyl-isoxazol-4-yl)methyl]phenyl]methanesulfonamide] |  |  |  |  |  |  |  |  |  |  |  |  |  |  |  |  | 100% | 100% | 100% | 100% | pest or weed control at 1200 g/ha (Echinochloa crus-galli [4]): 90%; pest or weed control at 1200 g/ha (Amaranthus viridis [5]): 40%; pest or weed control at 1200 g/ha (southern crabgrass [6]): 80%; pest or weed control at 1200 g/ha (Chenopodium album [7]): 0%; pest or weed control at 1200 g/ha (Echinochloa crus-galli [8]): 90%; pest or weed control at 1200 g/ha (Amaranthus viridis [9]): 80%; pest or weed control at 1200 g/ha (southern crabgrass [10]): 90%; pest or weed control at 1200 g/ha (Chenopodium album [11]): 80%; pest or weed control at 1200 g/ha (Echinochloa crus-galli [12]): 90%; pest or weed control at 1200 g/ha (Scirpus juncoides [13]): 90%; pest or weed control at 1200 g/ha [14, 17]: 60%; pest or weed control at 1200 g/ha [14, 18]: 90%
CCC(CC)n1oc(=O)c(Cc2ccccc2NS(=O)(=O)C(F)(F)F)c1C [Compound 1-103] | 100% | 90% | 80% | 100% | 90% | 90% | 90% | 40% | 100% | 100% | 100% | 100% | 90% | 80% | 60% | 80% |  |  |  |  | 
Cc1c(Cc2ccccc2NS(=O)(=O)C(F)(F)F)c(=O)on1CC(C)C [Compound 1-105, 1,1,1-trifluoro-N-[2-[(2-isobutyl-3-methyl-5-oxoisoxazol-4-yl)methyl]phenyl]methanesulfonamide] |  |  |  |  |  |  |  |  |  |  |  |  |  |  |  |  | 90% | 90% | 100% | 100% | pest or weed control at 1200 g/ha (Echinochloa crus-galli [4]): 90%; pest or weed control at 1200 g/ha (Amaranthus viridis [5]): 50%; pest or weed control at 1200 g/ha (southern crabgrass [6]): 50%; pest or weed control at 1200 g/ha (Chenopodium album [7]): 40%; pest or weed control at 1200 g/ha (Echinochloa crus-galli [8]): 60%; pest or weed control at 1200 g/ha (Amaranthus viridis [9]): 70%; pest or weed control at 1200 g/ha (southern crabgrass [10]): 90%; pest or weed control at 1200 g/ha (Chenopodium album [11]): 50%; pest or weed control at 1200 g/ha (Echinochloa crus-galli [12]): 90%; pest or weed control at 1200 g/ha (Scirpus juncoides [13]): 90%; pest or weed control at 1200 g/ha [14, 17]: 90%; pest or weed control at 1200 g/ha [14, 18]: 90%
